Results from patent US20200369728A1, “PEPTIDOMIMETIC MACROCYCLES AND USES THEREOF” (Aileron Therapeutics, Inc., priority 2015, published 2020).
Bridge positions count the residues as written; N and C are the ends. Square brackets hold non-standard residues; d marks the D form. Peptide text beside a SMILES is read from it. R8 = C=CCCCCCC[C@@](C)(N)C(=O)O; Cba = N[C@@H](CC1CCC1)C(=O)O; Chg = N[C@H](C(=O)O)C1CCCCC1; S5 = C=CCCC[C@](C)(N)C(=O)O; Nle = CCCC[C@H](N)C(=O)O; Ac3c = NC1(C(=O)O)CC1; Aib = CC(C)(N)C(=O)O

Legend:
SJSA-1 cells = assay: Cell lysis by peptidomimetic macrocycles (LDH release); type: cell-based; conditions: SJSA-1, 1 h
Method: SJSA-1 cells were plated out one day in advance in clear flat-bottom plates (Costar, catalog number 353072) at 7500 cells/well with 100 ul/well of growth media, leaving row H columns 10-12 empty for media alone. On the day of the assay, media was exchanged with RPMI 1% FBS media, 90 uL of media per well.
10 mM stock solutions of the peptidomimetic macrocycles were prepared in 100% DMSO. Peptidomimetic macrocycles were then diluted serially in 100% DMSO, and then further diluted 20-fold in sterile water to prepare working stock solutions in 5% DMSO/water of each peptidomimetic macrocycle at concentrations ranging from 500 μM to 62.5 μM.
10 μL of each compound was added to the 90 uL of SJSA-1 cells to yield final concentrations of 50 μM to 6.25 μM in 0.5% DMSO-containing media. The negative control (non-lytic) sample was 0.5% DMSO alone and positive control (lytic) samples include 10 μM Melittin and 1% Triton X-100.
Cell plates were incubated for 1 hour at 37° C. After the 1 hour incubation, the morphology of the cells is examined by microscope and then the plates were centrifuged at 1200 rpm for 5 minutes at room temperature. 40 μL of supernatant for each peptidomimetic macrocycle and control sample is transferred to clear assay plates. LDH release is measured using the LDH cytotoxicity assay kit from Caymen, catalog #1000882.

Caspase 3 = Caspase 3 detection assay in SJSA1 cells; type: cell-based; conditions: SJSA1, 48 h, Caspase 3 activation over DMSO-treated cells

CC[C@H](C)[C@H](NC(=O)[C@H](C)NC(=O)[C@H](C)NC(=O)[C@]1(C)CCCC=CCCCCCC[C@@](C)(NC(=O)[C@H](Cc2ccccc2)NC(=O)[C@@H](NC(=O)[C@H](CC(C)C)NC(C)=O)[C@@H](C)O)C(=O)N[C@@H](CCC(=O)O)C(=O)N[C@@H](Cc2ccc(C(=O)O)cc2)C(=O)N[C@@H](Cc2c[nH]c3cc(Cl)ccc23)C(=O)N[C@@H](C)C(=O)N[C@@H](CCC(N)=O)C(=O)N[C@@H](CC2CCC2)C(=O)N1)C(=O)N[C@H](C)C(N)=O (single isomer, unassigned) [compound 336]
6.25 μM % Lysed cells (1 h LDH) (SJSA-1 cells): 0% | 25 μM % Lysed cells (1 h LDH) (SJSA-1 cells): 0% | 50 μM % Lysed cells (1 h LDH) (SJSA-1 cells): 0%

CCCC[C@H](NC(=O)[C@H](C)NC(=O)[C@H](CO)NC(=O)[C@]1(C)CCCC=CCCCCCC[C@@](C)(NC(=O)[C@H](Cc2ccccc2)NC(=O)[C@@H](NC(=O)[C@H](CC(C)C)NC(C)=O)[C@@H](C)O)C(=O)N[C@@H](C)C(=O)N[C@@H](Cc2ccc(O)cc2)C(=O)N[C@@H](Cc2c[nH]c3ccccc23)C(=O)N[C@@H](C)C(=O)N[C@@H](CCC(N)=O)C(=O)N[C@@H](CC(C)C)C(=O)N1)C(N)=O [compound 3] (Ac-LTF[R8]AYWAQL[S5]SA[Nle]-NH2; staple 4-11)
6.25 μM % Lysed cells (1 h LDH) (SJSA-1 cells): 1% | 25 μM % Lysed cells (1 h LDH) (SJSA-1 cells): 1% | 50 μM % Lysed cells (1 h LDH) (SJSA-1 cells): 3%

CC[C@H](C)[C@H](NC(=O)[C@H](C)NC(=O)[C@H](C)NC(=O)[C@]1(C)CCCC=CCCCCCC[C@@](C)(NC(=O)[C@H](Cc2ccccc2)NC(=O)[C@@H](NC(=O)[C@H](CC(C)C)NC(C)=O)[C@@H](C)O)C(=O)N[C@@H](CCC(=O)O)C(=O)N[C@@H](Cc2ccc(O)cc2)C(=O)N[C@@H](Cc2c[nH]c3ccccc23)C(=O)N[C@@H](C)C(=O)N[C@@H](CCC(N)=O)C(=O)N[C@@H](CC(C)C)C(=O)N1)C(=O)N[C@H](C)C(N)=O (single isomer, unassigned) [compound 217]
6.25 μM % Lysed cells (1 h LDH) (SJSA-1 cells): 2% | 25 μM % Lysed cells (1 h LDH) (SJSA-1 cells): 1% | 50 μM % Lysed cells (1 h LDH) (SJSA-1 cells): 2%

CCCCCC(=O)N[C@@H](CC(C)C)C(=O)N[C@H](C(=O)N[C@@H](Cc1ccccc1)C(=O)N[C@]1(C)CCCCCCC=CCCC[C@@](C)(C(=O)N[C@@H](CO)C(=O)N[C@@H](C)C(=O)N[C@@H](C)C(N)=O)NC(=O)[C@H](CCC(C)C)NC(=O)[C@H](CCC(N)=O)NC(=O)[C@H](C)NC(=O)[C@H](Cc2c[nH]c3ccccc23)NC(=O)[C@H](Cc2ccc(O)cc2)NC(=O)[C@H](CCC(=O)O)NC1=O)[C@@H](C)O [compound 280]
6.25 μM % Lysed cells (1 h LDH) (SJSA-1 cells): 5% | 25 μM % Lysed cells (1 h LDH) (SJSA-1 cells): 6% | 50 μM % Lysed cells (1 h LDH) (SJSA-1 cells): 18%

CC(=O)N[C@@H](CC(C)C)C(=O)N[C@H](C(=O)N[C@@H](Cc1ccccc1)C(=O)N[C@]1(C)CCCCCCC=CCCC[C@@](C)(C(=O)N[C@@H](CO)C(=O)N[C@@H](C)C(=O)N[C@H](C(N)=O)C2CCCCC2)NC(=O)[C@H](CC(C)C)NC(=O)[C@H](CCC(N)=O)NC(=O)[C@H](C)NC(=O)[C@H](Cc2c[nH]c3ccccc23)NC(=O)[C@H](Cc2ccc(O)cc2)NC(=O)[C@H](C)NC1=O)[C@@H](C)O [compound 9] (Ac-LTF[R8]AYWAQL[S5]SA[Chg]-NH2; staple 4-11)
6.25 μM % Lysed cells (1 h LDH) (SJSA-1 cells): −3% | 25 μM % Lysed cells (1 h LDH) (SJSA-1 cells): 0% | 50 μM % Lysed cells (1 h LDH) (SJSA-1 cells): 2%

CC(=O)N[C@@H](Cc1ccccc1)C(=O)N[C@]1(C)CCCCCCC=CCCC[C@@](C)(C(=O)N[C@@H](C)C(=O)N[C@@H](C)C(=O)N[C@@H](Cc2ccccc2)C(N)=O)NC(=O)[C@H](CC(C)C)NC(=O)C2(CC2)NC(=O)[C@H](CCC(=O)O)NC(=O)[C@H](Cc2c[nH]c3ccccc23)NC(=O)[C@H](Cc2ccc(O)cc2)NC(=O)[C@H](C)NC1=O [compound 18] (Ac-F[R8]AYWE[Ac3c]L[S5]AAF-NH2; staple 2-9)
6.25 μM % Lysed cells (1 h LDH) (SJSA-1 cells): 0% | 25 μM % Lysed cells (1 h LDH) (SJSA-1 cells): 2% | 50 μM % Lysed cells (1 h LDH) (SJSA-1 cells): 4%

CC(=O)N[C@@H](Cc1ccccc1)C(=O)N[C@]1(C)CCCCCCC=CCCC[C@@](C)(C(=O)N[C@@H](C)C(=O)N[C@@H](C)C(=O)NC(C)(C)C(N)=O)NC(=O)[C@H](CC(C)C)NC(=O)C2(CC2)NC(=O)[C@H](CCC(=O)O)NC(=O)[C@H](Cc2c[nH]c3ccccc23)NC(=O)[C@H](Cc2ccc(O)cc2)NC(=O)[C@H](C)NC1=O [compound 22] (Ac-F[R8]AYWE[Ac3c]L[S5]AA[Aib]-NH2; staple 2-9)
6.25 μM % Lysed cells (1 h LDH) (SJSA-1 cells): 0% | 25 μM % Lysed cells (1 h LDH) (SJSA-1 cells): 0% | 50 μM % Lysed cells (1 h LDH) (SJSA-1 cells): 0%

CC(=O)N[C@@H](CC(C)C)C(=O)N[C@H](C(=O)N[C@@H](Cc1ccccc1)C(=O)N[C@]1(C)CCCCCCC=CCCC[C@@](C)(C(=O)N[C@@H](C)C(=O)N[C@@H](Cc2c[nH]cn2)C(=O)N[C@@H](Cc2ccccc2)C(=O)N[C@@H](C)C(N)=O)NC(=O)[C@H](CC(C)C)NC(=O)[C@H](CCC(N)=O)NC(=O)[C@H](C(C)C)NC(=O)[C@H](Cc2c[nH]c3ccccc23)NC(=O)[C@H](Cc2c[nH]cn2)NC(=O)[C@H](C)NC1=O)[C@@H](C)O [compound 190] (Ac-LTF[R8]AHWVQL[S5]AHFA-NH2; staple 4-11)
6.25 μM % Lysed cells (1 h LDH) (SJSA-1 cells): −1% | 25 μM % Lysed cells (1 h LDH) (SJSA-1 cells): 0% | 50 μM % Lysed cells (1 h LDH) (SJSA-1 cells): 1%

CC(=O)N[C@@H](Cc1ccccc1)C(=O)N[C@]1(C)CCCCCCC=CCCC[C@@](C)(C(=O)N[C@@H](C)C(=O)N[C@@H](C)C(=O)N[C@@H](CC(C)C)C(N)=O)NC(=O)[C@H](CC(C)C)NC(=O)C2(CC2)NC(=O)[C@H](CCC(=O)O)NC(=O)[C@H](Cc2c[nH]c3ccccc23)NC(=O)[C@H](Cc2ccc(O)cc2)NC(=O)[C@H](C)NC1=O [compound 15] (Ac-F[R8]AYWE[Ac3c]L[S5]AAL-NH2; staple 2-9)
6.25 μM % Lysed cells (1 h LDH) (SJSA-1 cells): 1% | 25 μM % Lysed cells (1 h LDH) (SJSA-1 cells): 2% | 50 μM % Lysed cells (1 h LDH) (SJSA-1 cells): 5%

CC(C)CC[C@@H]1NC(=O)[C@H](CCC(N)=O)NC(=O)[C@H](C)NC(=O)[C@H](Cc2c[nH]c3ccccc23)NC(=O)[C@H](Cc2ccc(O)cc2)NC(=O)[C@H](CCC(=O)O)NC(=O)[C@](C)(NC(=O)[C@H](Cc2ccccc2)NC(=O)[C@@H](NC(=O)[C@H](CC(C)C)NC(=O)CN(C)C)[C@@H](C)O)CCCCCCC=CCCC[C@@](C)(C(=O)N[C@@H](CO)C(=O)N[C@@H](C)C(=O)N[C@@H](C)C(N)=O)NC1=O [compound 279]
6.25 μM % Lysed cells (1 h LDH) (SJSA-1 cells): 6% | 25 μM % Lysed cells (1 h LDH) (SJSA-1 cells): 5% | 50 μM % Lysed cells (1 h LDH) (SJSA-1 cells): 6%

CC(=O)N[C@@H](CCC(=O)O)C(=O)N[C@H](C(=O)N[C@@H](Cc1ccccc1)C(=O)N[C@]1(C)CCCCCCC=CCCC[C@@](C)(C(=O)N[C@@H](CO)C(=O)N[C@@H](CC(C)C)C(=O)N[C@@H](C)C(N)=O)NC(=O)[C@H](CC(C)C)NC(=O)[C@H](CCC(N)=O)NC(=O)[C@H](C)NC(=O)[C@H](Cc2c[nH]c3ccccc23)NC(=O)[C@H](Cc2ccc(O)cc2)NC(=O)[C@H](C(C)C)NC1=O)[C@@H](C)O [compound 127] (Ac-ETF[R8]VYWAQL[S5]SLA-NH2; staple 4-11)
caspase 0.3 μM (Caspase 3): 1 | caspase 3 μM (Caspase 3): 1 | caspase 10 μM (Caspase 3): 4 | caspase 30 μM (Caspase 3): 13

CCCC[C@H](NC(=O)[C@H](C)NC(=O)[C@H](C)NC(=O)[C@]1(C)CCCC=CCCCCCC[C@@](C)(NC(=O)[C@H](Cc2ccccc2)NC(=O)[C@@H](NC(=O)[C@H](CC(C)C)NC(C)=O)[C@@H](C)O)C(=O)N[C@@H](CCC(=O)O)C(=O)N[C@@H](Cc2ccc(O)cc2)C(=O)N[C@@H](Cc2c[nH]c3ccccc23)C(=O)N[C@@H](C)C(=O)N[C@@H](CCC(N)=O)C(=O)N[C@@H](CC2CCC2)C(=O)N1)C(=O)N[C@@H](C)C(N)=O [compound 238] (Ac-LTF[R8]EYWAQ[Cba][S5]AA[Nle]A-NH2; staple 4-11)
caspase 0.3 μM (Caspase 3): 1 | caspase 3 μM (Caspase 3): 2 | caspase 10 μM (Caspase 3): 4 | caspase 30 μM (Caspase 3): 21

CC(=O)N[C@@H](CC(C)C)C(=O)N[C@H](C(=O)N[C@@H](Cc1ccccc1)C(=O)N[C@]1(C)CCCCCCC=CCCC[C@@](C)(C(=O)N[C@@H](CO)C(=O)N[C@@H](C)C(=O)N[C@@H](Cc2ccccc2)C(=O)N[C@@H](C)C(N)=O)NC(=O)[C@H](CC2CCC2)NC(=O)[C@H](CCC(N)=O)NC(=O)[C@H](C)NC(=O)[C@H](Cc2c[nH]c3ccccc23)NC(=O)[C@H](Cc2ccc(O)cc2)NC(=O)[C@H](CCC(=O)O)NC1=O)[C@@H](C)O [compound 242] (Ac-LTF[R8]EYWAQ[Cba][S5]SAFA-NH2; staple 4-11)
caspase 0.3 μM (Caspase 3): 1 | caspase 3 μM (Caspase 3): 4 | caspase 10 μM (Caspase 3): 5 | caspase 30 μM (Caspase 3): 18
